Data taken from patent US20230265151A1, “GIP/GLP1 CO-AGONIST COMPOUNDS” (priority 2020, published 2023).
Read-outs that look alike come from different tables or passages of the source.

Assays:
hGIPR = molecular target: T1, hGIPR (Homo sapiens, UniProt P48546); experiment: Functional cAMP formation (HTRF) in HEK-293 clonal cells expressing hGIPR, 0.1% bovine casein, without or with 1.0% human serum albumin; type: cell-based; conditions: for Emax: 37° C.; for EC50: cAMP, incubated at 37° C., 0.1% bovine casein (no human serum albumin), geometric mean
T1 construct: expressed in transfected cells
T1 sequence (P48546 22-466): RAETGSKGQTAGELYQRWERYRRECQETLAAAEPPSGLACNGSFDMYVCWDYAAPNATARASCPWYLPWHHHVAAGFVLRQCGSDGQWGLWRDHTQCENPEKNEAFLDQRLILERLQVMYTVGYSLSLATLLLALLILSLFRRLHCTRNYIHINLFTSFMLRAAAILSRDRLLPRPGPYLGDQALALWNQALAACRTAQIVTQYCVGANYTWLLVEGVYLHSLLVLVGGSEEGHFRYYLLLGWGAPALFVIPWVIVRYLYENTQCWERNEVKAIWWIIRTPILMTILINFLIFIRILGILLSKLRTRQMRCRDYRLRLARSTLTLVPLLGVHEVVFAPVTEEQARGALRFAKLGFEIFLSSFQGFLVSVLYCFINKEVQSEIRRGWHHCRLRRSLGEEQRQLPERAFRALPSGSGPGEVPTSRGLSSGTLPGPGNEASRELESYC
Procedure: (§1) After a 30-min incubation at 37° C., the resulting increase in intracellular cAMP is quantitatively determined using a CisBio cAMP Dynamic 2 HTRF Assay Kit (62AM4PEJ). Briefly, cAMP levels within the cell are detected by adding the cAMP-d2 conjugate in cell lysis buffer (10 µL) followed by the antibody anti-cAMP-Eu^3+-Cryptate, also in cell lysis buffer (10 µL). The resulting competitive assay is incubated for at least 60 min at room temperature, and then is detected using a PerkinElmer Envision® instrument with excitation at 320 nm and emission at 665 nm and 620 nm. Envision units (emission at 665 nm/620 nm* 10,000) are inversely proportional to the amount of cAMP present and are converted to nM cAMP per well us-ing a cAMP standard curve. […] A relative EC50 value and percent top (Emax) are derived by non-linear regression analysis using the percent maximal response vs. the concentration of peptide added, fitted to a four-parameter logistic equation.

hGCGR = molecular target: T2, hGCGR (Homo sapiens, UniProt P47871); experiment: Functional cAMP formation (HTRF) in HEK-293 clonal cells expressing hGCGR, 0.1% bovine casein, without or with 1.0% human serum albumin; type: cell-based; conditions: geometric mean
T2 construct: expressed in transfected cells
Procedure: as §1

[1] = HEK293, read-out: hGIPR Emax, % ± SEM, percent of maximal response to GIP(1-42)NH2, 0.1% bovine casein, arithmetic mean
[2] = hGCGR EC50, nM (SEM, n), cAMP, incubated at 37° C., 0.1% bovine casein (no human serum albumin)
[3] = HEK293, percent of maximal response to GIP(1-42)NH2, 0.1% bovine casein, arithmetic mean, read-out: hGIPR Emax, % ± SEM
[4] = cAMP, incubated at 37° C., 0.1% bovine casein (no human serum albumin), read-out: hGCGR EC50, nM (SEM, n)

T2 sequence (P47871 26-477): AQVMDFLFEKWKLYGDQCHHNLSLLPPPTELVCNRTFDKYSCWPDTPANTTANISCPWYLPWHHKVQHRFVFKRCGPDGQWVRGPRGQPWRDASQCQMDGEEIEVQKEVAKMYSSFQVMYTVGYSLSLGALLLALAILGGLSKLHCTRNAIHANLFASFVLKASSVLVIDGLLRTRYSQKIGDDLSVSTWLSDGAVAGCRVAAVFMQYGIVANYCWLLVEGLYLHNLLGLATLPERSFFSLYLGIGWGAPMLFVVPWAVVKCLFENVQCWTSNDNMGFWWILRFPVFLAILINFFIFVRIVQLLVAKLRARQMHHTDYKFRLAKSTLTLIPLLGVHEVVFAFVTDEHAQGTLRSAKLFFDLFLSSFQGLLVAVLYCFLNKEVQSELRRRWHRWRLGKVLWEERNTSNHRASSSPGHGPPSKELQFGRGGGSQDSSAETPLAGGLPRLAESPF

SMILES | Emax (hGIPR; [1]) | EC50 (hGIPR; hGIPR EC50, nM (SEM, n)) | EC50 (hGCGR; [2]) | Emax (hGIPR; [3]) | EC50 (hGIPR; read-out: hGIPR EC50, nM (SEM, n)) | EC50 (hGCGR; [4]) | Emax (hGIPR; HEK293, 0.1% bovine casein and 1.0% human serum albumin, percent of maximal response to GIP(1-42)NH2, read-out: hGIPR Emax, % ± SEM) | EC50 (hGCGR; 0.1% bovine casein and 1.0% human serum albumin, 37° C., read-out: hGCGR EC50, nM (SEM, n))
CC[C@H](C)[C@H](NC(=O)[C@H](CC(C)C)NC(=O)[C@](C)(Cc1ccc(O)cc1)NC(=O)[C@H](CCCCNC(=O)COCCOCCNC(=O)COCCOCCNC(=O)COCCOCCNC(=O)CC[C@H](NC(=O)CCCCCCCCCCCCC(=O)O)C(=O)O)NC(=O)[C@@H](NC(=O)[C@H](Cc1ccccc1)NC(=O)[C@H](CCC(=O)O)NC(=O)C(C)(C)NC(=O)[C@H](CCC(N)=O)NC(=O)[C@H](C)NC(=O)[C@H](CCCCNC(=O)COCCOCCNC(=O)COCCOCCNC(=O)COCCOCCNC(=O)CC[C@H](NC(=O)CCCCCCCCCCCCC(=O)O)C(=O)O)NC(=O)[C@H](CCCN)NC(=O)[C@H](CC(=O)O)NC(=O)[C@H](CC(C)C)NC(=O)[C@](C)(CC(C)C)NC(=O)[C@@H](NC(=O)[C@H](CO)NC(=O)[C@H](Cc1ccncc1)NC(=O)[C@H](CC(=O)O)NC(=O)[C@H](CO)NC(=O)[C@@H](NC(=O)[C@](C)(Cc1ccccc1F)NC(=O)[C@@H](NC(=O)CNC(=O)[C@H](CCC(=O)O)NC(=O)C(C)(C)NC(=O)[C@@H](N)Cc1ccc(O)cc1)[C@@H](C)O)[C@@H](C)O)[C@@H](C)CC)[C@@H](C)CC)C(=O)N[C@@H](CCC(=O)O)C(=O)NCC(=O)NCC(=O)N1CCC[C@H]1C(=O)N[C@@H](CO)C(=O)N[C@@H](CO)C(=O)NCC(=O)N[C@@H](C)C(=O)N1CCC[C@H]1C(=O)N1CCC[C@H]1C(=O)N1CCC[C@H]1C(=O)N[C@@H](CO)C(N)=O [Example 80] | 92.4 ± 1.14% | 0.0245 nM | > 9950 nM |  |  |  |  | 
CC[C@H](C)[C@H](NC(=O)[C@H](CC(C)C)NC(=O)[C@](C)(Cc1ccccc1)NC(=O)[C@H](CCCCNC(=O)COCCOCCNC(=O)COCCOCCNC(=O)CC[C@H](NC(=O)CCCCCCCCCCCCC(=O)O)C(=O)O)NC(=O)[C@@H](NC(=O)[C@H](Cc1ccccc1)NC(=O)[C@H](CCC(=O)O)NC(=O)C(C)(C)NC(=O)[C@H](CCC(N)=O)NC(=O)[C@H](C)NC(=O)[C@H](CCCCNC(=O)COCCOCCNC(=O)COCCOCCNC(=O)CC[C@H](NC(=O)CCCCCCCCCCCCC(=O)O)C(=O)O)NC(=O)[C@H](CCCN)NC(=O)[C@H](CC(=O)O)NC(=O)[C@H](CC(C)C)NC(=O)[C@](C)(CC(C)C)NC(=O)[C@@H](NC(=O)[C@H](CO)NC(=O)[C@H](Cc1ccncc1)NC(=O)[C@H](CC(=O)O)NC(=O)[C@H](CO)NC(=O)[C@@H](NC(=O)[C@](C)(Cc1ccccc1F)NC(=O)[C@@H](NC(=O)CNC(=O)[C@H](CCC(=O)O)NC(=O)C(C)(C)NC(=O)[C@@H](N)Cc1ccc(O)cc1)[C@@H](C)O)[C@@H](C)O)[C@@H](C)CC)[C@@H](C)CC)C(=O)N[C@@H](CCC(=O)O)C(=O)NCC(=O)NCC(=O)N1CCC[C@H]1C(=O)N[C@@H](CO)C(=O)N[C@@H](CO)C(=O)NCC(=O)N[C@@H](C)C(=O)N1CCC[C@H]1C(=O)N1CCC[C@H]1C(=O)N1CCC[C@H]1C(=O)N[C@@H](CO)C(N)=O [Example 83] | 89.6 ± 7.35% | 0.0223 nM | > 9950 nM |  |  |  |  | 
CC[C@H](C)[C@H](NC(=O)[C@H](CC(C)C)NC(=O)[C@](C)(Cc1ccc(O)cc1)NC(=O)[C@@H](CCC(=O)O)NC(=O)[C@@H](NC(=O)[C@H](Cc1ccccc1)NC(=O)[C@H](CCC(=O)O)NC(=O)C(C)(C)NC(=O)[C@H](CCC(N)=O)NC(=O)[C@H](C)NC(=O)[C@H](CCC(N)=O)NC(=O)[C@H](CCCN)NC(=O)[C@H](CC(=O)O)NC(=O)[C@H](CC(C)C)NC(=O)[C@](C)(CC(C)C)NC(=O)[C@@H](NC(=O)[C@H](CO)NC(=O)[C@H](Cc1ccncc1)NC(=O)[C@H](CC(=O)O)NC(=O)[C@H](CO)NC(=O)[C@@H](NC(=O)[C@](C)(Cc1ccccc1F)NC(=O)[C@@H](NC(=O)CNC(=O)[C@H](CCC(=O)O)NC(=O)C(C)(C)NC(=O)[C@@H](N)Cc1ccc(O)cc1)[C@@H](C)O)[C@@H](C)O)[C@@H](C)CC)[C@@H](C)CC)C(=O)N[C@@H](CCCCNC(=O)COCCOCCNC(=O)COCCOCCNC(=O)CC[C@H](NC(=O)CCCCCCCCCCCCC(=O)O)C(=O)O)C(=O)NCC(=O)NCC(=O)N[C@@H](CCCCNC(=O)COCCOCCNC(=O)COCCOCCNC(=O)CC[C@H](NC(=O)CCCCCCCCCCCCC(=O)O)C(=O)O)C(=O)N[C@@H](CO)C(=O)N[C@@H](CO)C(=O)NCC(=O)N[C@@H](C)C(=O)N1CCC[C@H]1C(=O)N1CCC[C@H]1C(=O)N1CCC[C@H]1C(=O)N[C@@H](CO)C(N)=O [Example 86] |  |  |  | 94.2 ± 1.16% | 0.0184 nM | > 9950 nM |  | 
CC[C@H](C)[C@H](NC(=O)[C@H](CC(C)C)NC(=O)[C@](C)(Cc1ccc(O)cc1)NC(=O)[C@@H](CCC(=O)O)NC(=O)[C@@H](NC(=O)[C@H](Cc1ccccc1)NC(=O)[C@H](CCC(=O)O)NC(=O)C(C)(C)NC(=O)[C@H](CCC(N)=O)NC(=O)[C@H](C)NC(=O)[C@H](CCCCNC(=O)COCCOCCNC(=O)COCCOCCNC(=O)CC[C@H](NC(=O)CCCCCCCCCCCCC(=O)O)C(=O)O)NC(=O)[C@H](CCCN)NC(=O)[C@H](CC(=O)O)NC(=O)[C@H](CC(C)C)NC(=O)[C@](C)(CC(C)C)NC(=O)[C@@H](NC(=O)[C@H](CO)NC(=O)[C@@H](NC(=O)[C@H](CC(=O)O)NC(=O)[C@H](CO)NC(=O)[C@@H](NC(=O)[C@](C)(Cc1ccccc1F)NC(=O)[C@@H](NC(=O)CNC(=O)[C@H](CCC(=O)O)NC(=O)C(C)(C)NC(=O)[C@@H](N)Cc1ccc(O)cc1)[C@@H](C)O)[C@@H](C)O)C1CCCCC1)[C@@H](C)CC)[C@@H](C)CC)C(=O)N[C@@H](CCC(=O)O)C(=O)NCC(=O)NCC(=O)N[C@@H](CCCCNC(=O)COCCOCCNC(=O)COCCOCCNC(=O)CC[C@H](NC(=O)CCCCCCCCCCCCC(=O)O)C(=O)O)C(=O)N[C@@H](CO)C(=O)N[C@@H](CO)C(=O)NCC(=O)N[C@@H](C)C(=O)N1CCC[C@H]1C(=O)N1CCC[C@H]1C(=O)N1CCC[C@H]1C(=O)N[C@@H](CO)C(N)=O [Example 97] |  |  |  | 97 ± 1.53% |  | > 9950 nM | 93.1% | > 9950 nM
CC[C@H](C)[C@H](NC(=O)[C@H](CC(C)C)NC(=O)[C@](C)(Cc1ccc(O)cc1)NC(=O)[C@@H](CCC(=O)O)NC(=O)[C@@H](NC(=O)[C@H](Cc1ccccc1)NC(=O)[C@H](CCC(=O)O)NC(=O)C(C)(C)NC(=O)[C@H](CCC(N)=O)NC(=O)[C@H](C)NC(=O)[C@H](CCCCNC(=O)COCCOCCNC(=O)COCCOCCNC(=O)CC[C@H](NC(=O)CCCCCCCCCCCCC(=O)O)C(=O)O)NC(=O)[C@H](CCCN)NC(=O)[C@H](CC(=O)O)NC(=O)[C@H](CC(C)C)NC(=O)[C@](C)(CC(C)C)NC(=O)[C@@H](NC(=O)[C@H](CO)NC(=O)[C@H](Cc1csc2ccccc12)NC(=O)[C@H](CC(=O)O)NC(=O)[C@H](CO)NC(=O)[C@@H](NC(=O)[C@](C)(Cc1ccccc1F)NC(=O)[C@@H](NC(=O)CNC(=O)[C@H](CCC(=O)O)NC(=O)C(C)(C)NC(=O)[C@@H](N)Cc1ccc(O)cc1)[C@@H](C)O)[C@@H](C)O)[C@@H](C)CC)[C@@H](C)CC)C(=O)N[C@@H](CCC(=O)O)C(=O)NCC(=O)NCC(=O)N[C@@H](CCCCNC(=O)COCCOCCNC(=O)COCCOCCNC(=O)CC[C@H](NC(=O)CCCCCCCCCCCCC(=O)O)C(=O)O)C(=O)N[C@@H](CO)C(=O)N[C@@H](CO)C(=O)NCC(=O)N[C@@H](C)C(=O)N1CCC[C@H]1C(=O)N1CCC[C@H]1C(=O)N1CCC[C@H]1C(=O)N[C@@H](CO)C(N)=O [Example 142] |  |  |  |  |  | > 9950 nM |  | 
